Patent US20240254119A1 (THIRD HARMONIC BIO, INC., priority 2022, published 2024)

Experiments:
[1] = target: T1, PDGFRα (Homo sapiens, UniProt P16234); assay: Caliper biochemical assay, PDGFRα; conditions: Table 6
T1 construct: purchased Millipore 14-467 (lot 26321_ACTI)
Protocol: (§1) Enzyme, substrate, and cofactors (ATP and Mn^2+) are combined in a well of a microtiter plate and incubated for 3 hours at 25° C. At the end of the incubation, the reaction is quenched by the addition of an EDTA-containing buffer. Substrate and product are separated electrophoretically using the microfluidic-based LabChip 3000 Drug Discovery System from Caliper Life Sciences* and quantitated by fluorescence intensity.
(§2) The substrate used in the CSF-1R and PDGFRα assay is FAM-[…]-CONH2 (FAM is carboxyfluorescein). Peptide should be >95% purity. The substrate for the KIT assay is FAM-[…]-NH2.
(§3) • 1. To a well of a 384-well plate add 5 μL of 2× enzyme buffer (or control) • 2. Add 100 nL of 100× compound. • 3. Add 5 μL of 2× substrate buffer. • 4. Incubate plate at 25° C. for 3 hours. • 5. Add 10 uL of […]. • 6. Read plate LabChip 3000 Drug Discovery System
(§4) • 3 hours at 25° C. where 100% Inhibitor: No enzyme.

[2] = Kinetic solubility assay; format: physicochemical; conditions: kinetic solubility, 50 mM PB (pH 7.4), shaken 24 hours at RT
Summary of the method: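 Concentration in the filtrate was determined by UPLC-UV or HPLC-UV with a standard curve. Before that, compound (10 mM DMSO stock) in 50 mM PB at pH 7.4 was agitated 24 h at room temperature, then PTFE-filtered with centrifugation.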

[3] = target: T2, CSF-1R (Homo sapiens, UniProt P07333); assay: Caliper biochemical assay, CSF-1R; conditions: Table 6
T2 construct: purchased Invitrogen PV3249 (lot 662393N)
T2 sequence (P07333 20-972): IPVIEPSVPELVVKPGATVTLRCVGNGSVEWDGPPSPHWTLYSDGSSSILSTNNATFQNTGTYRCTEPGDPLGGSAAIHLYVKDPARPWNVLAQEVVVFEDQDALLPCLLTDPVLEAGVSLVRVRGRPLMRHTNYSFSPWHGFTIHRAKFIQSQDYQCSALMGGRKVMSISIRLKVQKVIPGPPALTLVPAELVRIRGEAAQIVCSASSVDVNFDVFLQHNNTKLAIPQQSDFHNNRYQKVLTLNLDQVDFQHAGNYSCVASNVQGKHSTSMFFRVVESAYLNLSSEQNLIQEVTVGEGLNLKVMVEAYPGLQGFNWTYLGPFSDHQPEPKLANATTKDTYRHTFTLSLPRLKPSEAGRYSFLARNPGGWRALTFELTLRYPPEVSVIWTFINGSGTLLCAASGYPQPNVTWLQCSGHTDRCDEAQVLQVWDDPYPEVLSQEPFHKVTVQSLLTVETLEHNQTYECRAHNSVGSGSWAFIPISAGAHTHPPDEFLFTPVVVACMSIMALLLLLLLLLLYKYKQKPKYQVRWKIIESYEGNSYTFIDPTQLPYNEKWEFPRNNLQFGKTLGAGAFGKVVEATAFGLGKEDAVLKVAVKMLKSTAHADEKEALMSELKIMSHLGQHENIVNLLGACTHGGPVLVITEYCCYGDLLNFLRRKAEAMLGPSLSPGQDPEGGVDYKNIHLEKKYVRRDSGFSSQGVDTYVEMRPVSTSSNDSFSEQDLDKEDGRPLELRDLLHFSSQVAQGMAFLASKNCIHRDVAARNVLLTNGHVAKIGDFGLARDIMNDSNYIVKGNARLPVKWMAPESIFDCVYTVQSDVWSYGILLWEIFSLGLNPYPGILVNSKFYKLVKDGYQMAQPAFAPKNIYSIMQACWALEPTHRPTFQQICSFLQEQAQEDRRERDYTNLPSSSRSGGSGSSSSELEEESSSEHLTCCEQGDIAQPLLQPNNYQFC
Protocol: as §1, §2, §3, §4

[4] = target: T3, wtKIT (Homo sapiens, UniProt P10721); assay: Caliper biochemical assay, wtKIT; conditions: Table 6, read-out: KIT Biochemical IC50 avg
T3 construct: 1888289AM in the reaction mixtures
T3 sequence (P10721 26-976): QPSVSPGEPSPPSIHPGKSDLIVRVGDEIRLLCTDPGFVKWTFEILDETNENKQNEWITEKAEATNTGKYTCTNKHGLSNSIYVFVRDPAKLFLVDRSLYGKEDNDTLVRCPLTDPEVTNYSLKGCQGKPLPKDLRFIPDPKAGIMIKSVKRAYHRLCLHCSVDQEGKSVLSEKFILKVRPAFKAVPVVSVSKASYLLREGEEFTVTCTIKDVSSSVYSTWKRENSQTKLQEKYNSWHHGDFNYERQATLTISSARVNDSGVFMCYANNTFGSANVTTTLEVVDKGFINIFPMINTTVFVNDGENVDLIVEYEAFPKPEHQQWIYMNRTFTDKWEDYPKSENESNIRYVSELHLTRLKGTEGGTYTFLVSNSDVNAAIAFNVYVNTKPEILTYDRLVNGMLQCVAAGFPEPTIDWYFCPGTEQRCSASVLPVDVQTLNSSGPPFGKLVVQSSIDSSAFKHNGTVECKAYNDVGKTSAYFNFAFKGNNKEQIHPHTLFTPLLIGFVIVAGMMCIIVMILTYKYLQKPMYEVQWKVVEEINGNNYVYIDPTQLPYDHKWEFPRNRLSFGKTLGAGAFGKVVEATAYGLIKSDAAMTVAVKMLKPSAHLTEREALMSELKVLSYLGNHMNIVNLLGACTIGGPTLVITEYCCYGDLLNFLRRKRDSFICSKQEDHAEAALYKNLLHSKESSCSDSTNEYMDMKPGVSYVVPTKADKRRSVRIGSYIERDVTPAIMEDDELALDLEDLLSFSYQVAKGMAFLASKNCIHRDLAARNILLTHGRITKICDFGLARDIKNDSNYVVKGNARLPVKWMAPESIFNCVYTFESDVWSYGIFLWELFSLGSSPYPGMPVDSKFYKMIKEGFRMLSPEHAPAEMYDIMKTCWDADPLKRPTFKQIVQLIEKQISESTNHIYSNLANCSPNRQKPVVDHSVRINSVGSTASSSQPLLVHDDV
Protocol: as §1, §2, §3, §4
• 100 mM HEPES, pH 7.5 0.1% BSA • 0.01% Triton X-100 • 1 mM DTT • 10 mM MnCl2 • 10 μM Sodium Orthovanadate • 10 μM Beta-Glycerophosphate • 400 μM ATP • 1% DMSO (from compound) • 1 μM FAM-[…]-CONH2 5.0 nM wtKIT Enzyme (1888289AM)* • *Specific activity may vary from lot to lot. Enzyme concentration may need to be adjusted to yield 10-20% conversion of substrate to product.

[5] = target: T4, BCRP (BCRP-MDCKII monolayer) (Homo sapiens, UniProt Q9UNQ0); assay: MDCKII-BCRP bidirectional transport assay; format: in vitro ADME; conditions: for MDCK-BCRP: Papp A-B: apical to basolateral
T4 construct: host or cells: MDCKII (canine kidney) cells
T4 sequence (Q9UNQ0 1-655): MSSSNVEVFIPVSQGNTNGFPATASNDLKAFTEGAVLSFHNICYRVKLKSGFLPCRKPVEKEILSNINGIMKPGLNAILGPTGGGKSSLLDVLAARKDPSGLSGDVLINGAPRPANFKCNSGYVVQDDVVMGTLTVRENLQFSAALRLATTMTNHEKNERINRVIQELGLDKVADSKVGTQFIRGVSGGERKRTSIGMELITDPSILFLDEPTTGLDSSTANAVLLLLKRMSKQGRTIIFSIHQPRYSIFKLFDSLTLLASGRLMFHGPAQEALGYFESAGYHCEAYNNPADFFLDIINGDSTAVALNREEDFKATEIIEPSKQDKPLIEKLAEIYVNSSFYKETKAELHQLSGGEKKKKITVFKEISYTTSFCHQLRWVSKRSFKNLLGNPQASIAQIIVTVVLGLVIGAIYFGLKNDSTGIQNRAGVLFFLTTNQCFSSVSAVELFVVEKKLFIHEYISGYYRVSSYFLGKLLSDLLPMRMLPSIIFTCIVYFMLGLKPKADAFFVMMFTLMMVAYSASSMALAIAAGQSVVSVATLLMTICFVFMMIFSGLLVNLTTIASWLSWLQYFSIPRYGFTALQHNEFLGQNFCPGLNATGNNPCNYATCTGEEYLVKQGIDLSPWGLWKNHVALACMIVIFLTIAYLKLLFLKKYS
Protocol: Exemplary compounds were tested for cell permeability in Caco-2, MDCKII-MDR1 and MDCKII-BCRP cell lines with efflux transporter engagement inferred from the efflux ratios determined. Procedures and results are described below. […] This feature of certain compounds is in part due to efflux transporter engagement. See, for instance, exemplary such compounds included in data tables below.
The reference compound Teriflunomide and test compounds are tested in the bidirectional assay. Test compound and reference compounds incubations were tested in duplicates.
The transport assay can be performed between days 12 to day 15 using ready to use PreadyPort™ BCRP-MDCKII monolayer in 96 well plate.
The medium was aspirated from the apical and basal compartments and 75 and 235 μL assay buffer was added to each of the 96 wells of apical and basal compartments of the PreadyPort™ plate.
The plates were pre-incubated for 15 min at 37° C. with 5% CO2 in humidified atmosphere. After preincubation the assay buffer was removed from the apical and basal inserts of the plate.
In apical to basolateral (A→B) transport, 75 μL of test or reference compound working solution to apical inserts and 235 μL of blank assay buffer were added to the corresponding basal compartments.
In basolateral to apical transport, 235 μL of test or reference compound working solution to the basal compartments and 75 μL of blank assay buffer solution were added to corresponding apical inserts.
The sandwich plate was incubated for 120 min in incubator at 5% CO2 and 37° C.
After incubation, 60 μL was transferred from receiver and donor compartments to collection plate.
For donor and C0 samples 20-fold dilution was accomplished by mixing 60 μL of collected sample with 1140 μL of transport buffer and from that solution aliquot 60 μL transfer Both receiver and donor samples were processed by adding […] of acetonitrile containing internal standard (60 μL of sample+240 μL of acetonitrile containing glyburide as internal standard, 125 ng/mL) and vortexing the samples. The compound concentration was measured in all samples using respective calibration standards by LC-MS/MS.
Calculate the Papp and recovery using the given formula:
[formula] [formula] • Where: dQ/dt=Permeability rate in μM/see • C0=Initial concentration in μM • A=Membrane surface area (0.33 cm^2) • V=Volume of receiver chamber • Cend, a=concentration in acceptor well at end of incubation • Cend, d=concentration in donor well at end of incubation • CHBSS=loading concentration measured in HBSS

[6] = target: T3, wtKIT; assay: HTRF biochemical assay, wtKIT (phosphorylation of a peptide substrate); conditions: Table 4
Summary of the method: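 HTRF read-out of FAM-peptide (1 µM) phosphorylation after anti-phosphotyrosine antibody addition and EDTA quench. Reaction: 5.0 nM wtKIT, 400 µM ATP, 10 mM Mn2+, HEPES pH 7.5, 1% DMSO, 3 h, 25 °C; optional enzyme-compound preincubation; enzyme level set for 10-20% conversion.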

T1 sequence (P16234 24-1089): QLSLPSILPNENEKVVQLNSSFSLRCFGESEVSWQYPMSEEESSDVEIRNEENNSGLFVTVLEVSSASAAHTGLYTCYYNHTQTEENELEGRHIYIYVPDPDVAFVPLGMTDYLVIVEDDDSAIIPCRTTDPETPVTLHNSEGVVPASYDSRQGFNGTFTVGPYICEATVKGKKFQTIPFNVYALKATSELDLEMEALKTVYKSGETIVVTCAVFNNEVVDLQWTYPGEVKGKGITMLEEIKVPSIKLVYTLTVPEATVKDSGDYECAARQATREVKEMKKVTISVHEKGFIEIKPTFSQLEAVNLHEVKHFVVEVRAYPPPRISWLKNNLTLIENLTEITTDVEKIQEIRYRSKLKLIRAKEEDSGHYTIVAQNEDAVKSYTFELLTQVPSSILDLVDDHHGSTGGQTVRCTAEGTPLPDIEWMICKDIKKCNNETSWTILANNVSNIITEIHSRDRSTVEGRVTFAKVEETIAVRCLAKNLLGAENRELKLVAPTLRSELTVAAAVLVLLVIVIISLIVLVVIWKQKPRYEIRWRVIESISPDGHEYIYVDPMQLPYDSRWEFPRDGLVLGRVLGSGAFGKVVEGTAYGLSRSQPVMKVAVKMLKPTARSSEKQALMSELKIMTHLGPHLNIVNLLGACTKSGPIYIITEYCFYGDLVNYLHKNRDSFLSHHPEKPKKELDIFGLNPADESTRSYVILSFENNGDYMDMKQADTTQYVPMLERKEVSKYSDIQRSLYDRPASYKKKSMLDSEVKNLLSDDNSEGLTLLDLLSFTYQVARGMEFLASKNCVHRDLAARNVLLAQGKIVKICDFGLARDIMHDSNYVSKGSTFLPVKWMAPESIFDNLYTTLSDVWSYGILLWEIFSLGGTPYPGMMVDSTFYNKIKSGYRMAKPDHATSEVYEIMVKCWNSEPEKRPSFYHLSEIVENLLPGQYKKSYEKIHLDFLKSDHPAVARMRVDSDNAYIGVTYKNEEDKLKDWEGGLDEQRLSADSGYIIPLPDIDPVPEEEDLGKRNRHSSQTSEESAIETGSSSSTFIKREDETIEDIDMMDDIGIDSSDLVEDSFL

Row | Compound | IC50 [1] [µM] | Solubility (μM) [2] | IC50 [3] [µM] | IC50 [4] [µM] | MDCK-BCRP: Efflux Ratio [5] | MDCK-BCRP: Papp A-B [5] | IC50 [6] [µM]
1 | COC(=O)N1CC(c2nc(-c3ccc(C)c(NC(=O)c4cnc5cc(COCC(F)(F)F)ccn45)c3)no2)C1 [Compound I-128] | 5 to 30 | **** (a solubility less than or equal to 2 μM) | 0.05 to 0.5 | ≤ 0.05 |  |  | 
2 | Cc1nc(-c2ccc(C)c(NC(=O)c3cnc4cc(COCC(F)(F)F)ccn34)c2)no1 [Compound I-133] | 5 to 30 | **** (a solubility less than or equal to 2 μM) | 0.5 to 5 | ≤ 0.05 |  |  | 
3 | COC(=O)N1CC(c2nc(-c3ccc(C)c(NC(=O)c4cnc5cc(C(F)F)ccn45)c3)no2)C1 [Compound I-135] | 5 to 30 | **** (a solubility less than or equal to 2 μM) | 0.05 to 0.5 | ≤ 0.05 |  |  | 
4 | Cc1ccc(-c2noc([C@H](C)NS(C)(=O)=O)n2)cc1NC(=O)c1cnc2ccccn12 [Compound I-147] | 5 to 30 | ** (a solubility greater than 10 μM and less than or equal to 50 μM) | 0.05 to 0.5 | ≤ 0.05 |  |  | 
5 | Cc1nc(-c2ccc(C)c(NC(=O)c3cnc4ccc(NCCO)cn34)c2)no1 [Compound I-176] | 0.05 to 0.5 | ** (a solubility greater than 10 μM and less than or equal to 50 μM) | ≤ 0.05 | ≤ 0.05 |  |  | 
6 | Cc1ccc(-c2noc([C@@H]3CCN3S(=O)(=O)c3ccccc3)n2)cc1NC(=O)c1cnc2ccccn12 [Compound I-186] | 0.5 to 5 | *** (a solubility greater than 2 μM and less than or equal to 10 μM) | 0.05 to 0.5 | 0.05 to 0.5 |  |  | 
7 | Cc1ccc(-c2noc([C@@H]3CCN3S(=O)(=O)C3CCOCC3)n2)cc1NC(=O)c1cnc2ccccn12 [Compound I-187] | 0.05 to 0.5 | ** (a solubility greater than 10 μM and less than or equal to 50 μM) | 0.05 to 0.5 | 0.05 to 0.5 |  |  | 
8 | Cc1ccc(-c2noc(C3CC(S(=O)(=O)N(C)C)C3)n2)cc1NC(=O)c1cnc2ccccn12 (stereo not drawn) [Compound I-211] |  | *** (a solubility greater than 2 μM and less than or equal to 10 μM) |  | ≤ 0.05 | 14.1 | 1.91 10^−6 cm/s | 0.05 to 0.5
9 | COC(=O)N1CC(c2nc(-c3ccc(C)c(NC(=O)c4cnc5ccc(OC[C@H](C)O)cn45)c3)no2)C1 [Compound I-246] |  | **** (a solubility less than or equal to 2 μM) |  | ≤ 0.05 | 16.9 | 1.81 10^−6 cm/s | 0.05 to 0.5
10 | Cc1ccc(-c2noc([C@H]3CCN(C(=O)OC(C)(C)C)C3)n2)cc1NC(=O)c1cnc2ccccn12 [Compound I-398] |  | *** (a solubility greater than 2 μM and less than or equal to 10 μM) |  | 0.05 to 0.5 | 1.33 | 20.3 10^−6 cm/s | 
